Results reported in patent US8993628B2, “Synthetic ligands selective for LXRβ over LXRα, identification and methods of use thereof” (City of Hope, priority 2007, dated 2015).
“Also recorded” adds a separate entry of the source.

Assays:
[1] = test system: ABCA1; test: Gene expression analysis of endogenous LXR target gene ABCA1 in H4 cells; assay type: cell-based, human; conditions: for induction of ABCA1 expression: H4 neuroglioma cells, compared with T0901317
Method: (§1) The effect of various concentrations of LXRβ-selective compounds on endogenous LXR target genes in H4 cells was examined. […] Induction of ABCG1, another lipid-transporter regulated by LXR, was also observed in H4 cells treated with T0901317, DY136 and DY142. […] Gene expression analysis was conducted to measure the endogenous LXR target genes. Briefly, cells were plated in a 6-well plate at the following densities/well: 0.35 million H4 cells (DMEM, 10% FBS), 0.5 million CCF-STTG1 (RPMI, 15% FBS), 1 million SH-SY5Y (RPMI, 15% FBS), or 1 million THP (RPMI, 15% FBS+100 nM TPA for 3 days to differentiate). The cells were treated the next day in serum-free DMEM supplemented with insulin, transferrin, and selenium and apoA1 (10 μg/ml). The media was harvested 24 hours later, mixed with a protease inhibitor cocktail (Roche), debris was pelleted (14000 g, 5 min.) and the supernatant saved for Aβ measurements (below). The cells were then rinsed with PBS and lysed with Trizol reagent. RNA isolation and cDNA synthesis (OmniScript, Qiagen) were as per manufacturer's protocol. Gene expression analysis was done in triplicate with 30 ng of cDNA and the following primer-sets: ABCA1, ABCG1, SREBP1c, GAPDH, HPRT (either SYBR Green or FAM-labeled LUX primers (Invitrogen). None of these primers produce primer-dimers or amplified genomic DNA (all primer-sets are intron spanning). The signal for each target gene was normalized to GAPDH and/or HPRT.

[2] = test system: ABCG1; test: Gene expression analysis of endogenous LXR target gene ABCG1 in H4 cells; assay type: cell-based, human
Method: as §1

[3] = test system: SREBP1c; test: Gene expression analysis of endogenous LXR target gene SREBP1c in H4 cells; assay type: cell-based, human; conditions: compared with T0901317
Method: as §1, with “Gene expression analysis was done in triplicate with 30 ng of cDNA and the following primer-sets: ABCA1, ABCG1, SREBP1c, GAPDH, HPRT (either SYBR Green or FAM-labeled LUX primers (Invitrogen). None of these primers produce primer-dimers or amplified genomic DNA (all primer-sets are intron spanning). The signal for each target gene was normalized to GAPDH and/or HPRT.” left out

[4] = test system: apoE; test: Gene expression analysis of apoE in H4 cells; assay type: cell-based, human; conditions: H4 neuroglioma cells
[5] = biological target: T1, human LXRβ (Homo sapiens, UniProt P55055); test: GAL4-LXRβ reporter gene assay in transiently transfected CV-1 cells; assay type: cell-based; conditions: reporter gene assay, CV-1 cells; FIG. 2 left; receptor subtype not stated
T1 construct: EC50; other: reporter gene assay, CV-1 cells
T1 sequence (P55055 222-460): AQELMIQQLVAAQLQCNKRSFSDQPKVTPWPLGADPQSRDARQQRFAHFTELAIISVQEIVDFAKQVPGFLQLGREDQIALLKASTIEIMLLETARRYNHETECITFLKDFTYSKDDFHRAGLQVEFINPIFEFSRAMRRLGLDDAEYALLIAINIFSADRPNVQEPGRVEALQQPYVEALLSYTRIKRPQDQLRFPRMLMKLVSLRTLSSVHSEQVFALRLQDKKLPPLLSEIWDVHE
Method: (§2) Several potential LXR ligands were synthesized as described in Example 5. These compounds were assayed for activity on human LXRα and LXRβ using high-throughput reporter gene assays (e.g., reporter gene assays using Biomek automated workstation) in transiently transfected CV-1 cells.
(§3) In the reporter gene assay CV-1 cells were grown in Dulbecco's Modified Eagle's medium supplemented with 10% resin-charcoal stripped fetal bovine serum, 50 U/ml penicillin G and 50 μg/ml streptomycin sulfate (DMEM-FBS) at 37° C. in 5% CO2. One day prior to transfection, cells were plated to 50-80% confluence using phenol-red free DMEM-FBS. Cells were transiently transfected by lipofection with DOTAP. A GAL4 luciferase reporter construct (300 ng/10^5 cells) and cytomegalovirus driven expression vectors for GAL4-LXRα or GAL4-LXRβ (20-50 ng/10^5 cells) were added along with CMX-βgal (500 ng/10^5 cells) as an internal control. After 2 hours the liposomes were removed and cells treated for approximately 45 hours with phenol-red free DMEM-FBS containing the indicated LXR ligands. After exposure to ligand, the cells were harvested and assayed for luciferase and β-galactosidase activity. All points were assayed in triplicate. […] Use of reporter gene assays are known in the art and described for example in Sambrook et al., Molecular Cloning: A Laboratory Manual, 2nd Ed., Cold Spring Harbor Laboratory Press, Cold Spring Harbor, N.Y.

[6] = test system: human LXRβ; test: as above; assay type: cell-based; conditions: for LXRβ-selectivity factor, fold activation of LXRβ/LXRα: 10 μM, CV-1 reporter gene assays; for activation of LXRβ: reporter gene assay, CV-1 cells
Method: as §2, §3

[7] = test system: human LXRα; test: GAL4-LXRα reporter gene assay in transiently transfected CV-1 cells; assay type: cell-based
Method: as §2
In the reporter gene assay CV-1 cells were grown in Dulbecco's Modified Eagle's medium supplemented with 10% resin-charcoal stripped fetal bovine serum, 50 U/ml penicillin G and 50 μg/ml streptomycin sulfate (DMEM-FBS) at 37° C. in 5% CO2. One day prior to transfection, cells were plated to 50-80% confluence using phenol-red free DMEM-FBS. Cells were transiently transfected by lipofection with DOTAP. A GAL4 luciferase reporter construct (300 ng/10^5 cells) and cytomegalovirus driven expression vectors for GAL4-LXRα or GAL4-LXRβ (20-50 ng/10^5 cells) were added along with CMX-βgal (500 ng/10^5 cells) as an internal control. After 2 hours the liposomes were removed and cells treated for approximately 45 hours with phenol-red free DMEM-FBS containing the indicated LXR ligands. After exposure to ligand, the cells were harvested and assayed for luciferase and β-galactosidase activity. All points were assayed in triplicate. […]

[8] = test system: LXR; conditions: cited from earlier work
[9] = test system: human H4 neuroglioma cells; test: Quantification of total cellular cholesterol in H4 cells (GC-MS); assay type: cell-based; conditions: 1 μM, 24 hours
Method: In order to confirm the effects of LXR activation on Aβ production in human cells, human H4 neuroglioma cells were treated with the pan-LXR agonist T0901317 (1 μM) for 24 hours and measured the amount of total cellular cholesterol remaining in the cells and the amount of Aβ40 secreted into the media (FIG. 1). As expected, T0901317 reduced both intracellular cholesterol levels as well as secreted Aβ40. […] Also as expected, T0901317 induced a greater than 50-fold increase in ABCA1 expression in H4 cells (FIG. 2). […] For quantification of total cellular cholesterol, H4 cells are seeded in 12-well plates at 70,000 per well. Cells are treated with DMSO (vehicle) or T0901317 in serum-free DMEM for 24 hours in presence of 10 μg/ml apoA1. Cells were lysed with 1N NaOH in 90% ethanol and 10 μM of 5α-cholestane as an internal control tracer. Cholesterol esters were hydrolyzed by incubation at 65° C. for 2 hours. Equal volume of water is added to the samples, and extracted twice with 2 volumes of hexane.

[10] = test system: Aβ40; test: Aβ40 secreted into the media of H4 cells (ELISA kit); assay type: cell-based, human; conditions: 1 μM, 24 hours
Method: In order to confirm the effects of LXR activation on Aβ production in human cells, human H4 neuroglioma cells were treated with the pan-LXR agonist T0901317 (1 μM) for 24 hours and measured the amount of total cellular cholesterol remaining in the cells and the amount of Aβ40 secreted into the media (FIG. 1). As expected, T0901317 reduced both intracellular cholesterol levels as well as secreted Aβ40. […] Also as expected, T0901317 induced a greater than 50-fold increase in ABCA1 expression in H4 cells (FIG. 2). […] To quantify Aβ production, cells were cultured as described above (gene expression analysis). Media was added to the diluent Buffer provided with the kit and assayed according to the manufacturer's instructions (Biosource).

[11] = test system: C57BL/6 mice; conditions: 1 week of treatment; cited from earlier work
[12] = test system: primary neuronal and astrocyte cultures; conditions: cited from earlier work
[13] = test system: mouse Neuro2A cells expressing human APPswe; conditions: cited from earlier work
[14] = test system: transgenic mice expressing human APPswe; conditions: one-week treatment; cited from earlier work

EC50 [5]	Compound	induction of ABCA1 expression [1]	induction of ABCG1 [2]	induction of SREBP1c [3]	ApoE expression [4]	LXRβ-selectivity factor, fold activation of LXRβ/LXRα [6]	activation of LXRα [7]	activation of LXRβ [6]	association of LXR with a coactivator peptide derived from SRC-1 [8]	intracellular cholesterol levels (total cellular cholesterol) [9]	secreted Aβ40 [10]	increase in ABCA1 expression ([1]; H4 cells)	hypertriglyceridemia [11]	cholesterol efflux [12]	Aβ production [13]	Aβ40 and Aβ42 in the brain [14]
1 to 3 µM	O=C(O)Cc1cccc(OCCCN(Cc2cccc(C(F)(F)F)c2F)CC(c2ccccc2)c2ccccc2)c1 [DY136, (3-{3-[(2,2-Diphenyl-ethyl)-(2-fluoro-3-trifluoromethyl-benzyl)-amino]-propoxy}-phenyl)-acetic acid]	expected activation; also recorded: to a level nearly that of the pan-agonist T0901317	observed	little effect; also recorded: only half that observed with T0901317	increased	3.4	–	–	–	–	–	–	–	–	–	–
1 to 3 µM	O=C(O)Cc1cccc(OCCCN(Cc2cccc(C(F)(F)F)c2)CC(c2ccccc2)c2ccccc2)c1 [DY142, (3-{3-[(2,2-Diphenyl-ethyl)-(3-trifluoromethyl-benzyl)-amino]-propoxy}-phenyl)-acetic acid]	expected activation; also recorded: to a level nearly that of the pan-agonist T0901317	observed	little effect; also recorded: only half that observed with T0901317	increased by all three ligands, although the effects were slightly lower	6.5	–	–	–	–	–	–	–	–	–	–
–	O=C(O)Cc1cccc(OCCCN(Cc2cccc(C(F)(F)F)c2Cl)CC(c2ccccc2)c2ccccc2)c1 [GW3965]	–	–	–	–	2.2	activated	activated	promotes association	–	–	–	–	–	–	–
–	O=S(=O)(c1ccccc1)N(CC(F)(F)F)c1ccc(C(O)(C(F)(F)F)C(F)(F)F)cc1 [T0901317]	–	observed	–	increased	1.7	activated	activated	–	reduced	reduced	greater than 50 fold	induces severe hypertriglyceridemia	enhanced cholesterol efflux	decreased	significant decrease
